Measurements: patent US10363251B2, “(+)-morphinans as antagonists of toll-like receptor 9 and therapeutic uses thereof” (Mallinckrodt LLC, priority 2009, dated 2019)
Entries after “also recorded” stand apart in the source; their conditions may differ. Where two headings read alike, the source gives them in different places.

Legend:
[1] = molecular target: T1, TLR9 (Homo sapiens, UniProt Q9NR96); assay: TLR9 screening of (+)-morphinan library, SEAP reporter in HEK293 cells expressing TLR9; format: cell-based; conditions: activator ODN2006; for OD 650 nm (mean ± sd): control (no activator) 0.14, activator 1.42 OD
T1 construct: expressed in transfected cells; host or cells: HEK293
T1 sequence (Q9NR96 26-1032): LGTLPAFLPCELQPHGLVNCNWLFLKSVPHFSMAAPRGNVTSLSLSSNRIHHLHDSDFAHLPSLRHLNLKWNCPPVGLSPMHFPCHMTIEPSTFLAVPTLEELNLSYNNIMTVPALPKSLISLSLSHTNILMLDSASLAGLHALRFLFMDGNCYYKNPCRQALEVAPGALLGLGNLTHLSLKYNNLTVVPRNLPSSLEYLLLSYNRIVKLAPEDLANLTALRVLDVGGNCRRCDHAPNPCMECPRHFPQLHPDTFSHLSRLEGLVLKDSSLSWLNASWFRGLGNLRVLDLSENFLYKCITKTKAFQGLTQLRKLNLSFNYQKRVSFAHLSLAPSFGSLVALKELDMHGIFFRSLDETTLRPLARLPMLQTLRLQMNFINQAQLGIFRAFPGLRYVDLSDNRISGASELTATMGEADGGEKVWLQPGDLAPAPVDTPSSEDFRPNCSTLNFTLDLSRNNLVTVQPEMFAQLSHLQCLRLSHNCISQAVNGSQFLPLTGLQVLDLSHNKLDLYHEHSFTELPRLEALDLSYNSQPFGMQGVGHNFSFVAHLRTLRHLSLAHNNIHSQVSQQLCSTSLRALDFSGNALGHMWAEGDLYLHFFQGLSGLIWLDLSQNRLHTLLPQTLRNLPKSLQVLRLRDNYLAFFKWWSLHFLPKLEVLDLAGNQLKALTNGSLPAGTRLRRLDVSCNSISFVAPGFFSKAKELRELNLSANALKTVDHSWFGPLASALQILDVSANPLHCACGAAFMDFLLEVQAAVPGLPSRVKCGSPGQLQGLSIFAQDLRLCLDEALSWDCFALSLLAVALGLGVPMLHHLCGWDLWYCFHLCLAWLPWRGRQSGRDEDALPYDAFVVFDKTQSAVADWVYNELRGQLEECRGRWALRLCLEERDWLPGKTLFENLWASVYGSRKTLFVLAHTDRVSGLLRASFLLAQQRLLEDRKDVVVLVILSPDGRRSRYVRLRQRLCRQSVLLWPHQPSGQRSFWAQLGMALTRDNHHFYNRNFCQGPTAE
How it was run: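 HEK293 cells expressing TLR9 with an NF-κB-inducible SEAP reporter were preincubated with compound at 10 μM and 100 nM for 30 min at 37 °C, then stimulated with ODN2006. SEAP was read as OD 650 nm after 16-20 h, in triplicate.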

[2] = system: chronic constriction injury (CCI) neuropathic pain model; assay: Reversal of allodynia (von Frey) in CCI rats, 4 days of dosing, Example 4; format: in vivo, rat; conditions: for Animals sleepier/sedated on at least one post dosing occasion / Local observations (swelling, irritation): i.p.; for Reversal of allodynia (von Frey): i.p. once a day for 4 days from day 14, tested 3 hrs after dosing, ultra low to high dose; for Reversal of allodynia (von Frey) / Area under the curve (AUC) analysis of allodynia: vs saline; for Area under the curve (AUC) analysis of allodynia: i.p. once a day for 4 days
Protocol: Allodynia was induced in a group of (male, Sprague-Dawley) rats essentially as described above in Example 3. Prior to surgery, animals were tested to establish their baseline von Frey scores. Any animal with a Log absolute von Frey score lower than 4.65 on either leg was excluded from the study. CCI surgery was performed on the left sciatic nerve as detailed above. On days 4 and 14 post-surgery, the animals were tested using the von Frey test of mechanical allodynia to ensure that allodynia was established.
Beginning at about day 14 post-surgery, the animals were dosed once a day for 4 days. Compounds II-25, II-93, II-62, and III-2 were tested. All drugs were administered intraperitoneally (i.p.). Allodynia was tested prior to and again 3 hrs after each dosing. Drug administration and testing was done blindly. After the 4th day of dosing, the animals were sacrificed, cardiac perfusion was performed, and spinal cords were removed and stored for further analysis.
All data were analyzed using 2-way ANOVA's with Bonferroni's post hoc test compared to saline unless otherwise stated. Area under curve (AUC) was calculated using Graphpad Prism and comparisons were made using 1-way ANOVA with Dunnet's post hoc test.

[3] = system: APAP-induced liver toxicity; assay: Acetaminophen (APAP)-induced hepatotoxicity model; format: in vivo, mouse; conditions: APAP 500 mg/Kg ip, 12 hours post-APAP; for Protection from APAP-induced toxicity: test doses and timing per Table 6; for Liver histology scores (necrosis and hemorrhage): vs APAP alone
Protocol: For this, APAP-induced liver toxicity was induced in male C57BL/6 mice aged between 8-10 weeks by a single intraperitoneal (ip) injection of APAP in PBS at a dose of 500 mg/Kg (Imaeda et al. (2009) J. Clin. Invest. 119(2):305-314). The ability of (+)-morphinans to reduce liver toxicity was tested in the following groups:
The (+)-morphinan (or PBS) was either administered as a single subcutaneous (sc) or ip injection concurrent with the APAP injection or one hour prior to the APAP injection.
The mice were sacrificed 12 hours post-APAP treatment. Liver samples were stained with H&E and analyzed for signs of necrosis and hemorrhage. Histology scores were assigned using the standard rating scale. The levels of serum alanine transaminase (ALT) were also measured in each animal using a standard assay.

[4] = HEK293, read-out: % Inhibition (mean), 100 nM
[5] = HEK293, read-out: % Inhibition (mean), 10 μM
[6] = HEK293, 100 nM, read-out: % Inhibition (mean)
[7] = HEK293, 10 μM, read-out: % Inhibition (mean)

| Compound | OD 650 nm (mean ± sd) ([1]; 100 nM) | OD 650 nm (mean ± sd) ([1]; 10 μM) | inhibition at 0.1 µM [1, 4] | inhibition at 10 µM [1, 5] | inhibition at 0.1 µM [1, 6] | inhibition at 10 µM [1, 7] | other results |
| --- | --- | --- | --- | --- | --- | --- | --- |
| COc1ccc2c3c1O[C@@H]1[C@H](O)CC[C@@H]4[C@H](C2)N(CC2CC2)CC[C@]341 [II-25] | 1.33 ± 0.07 OD | 0.21 ± 0.06 OD | 6% | 85% | – | – | Animals sleepier/sedated on at least one post dosing occasion ([2]; high dose): 5-6; Reversal of allodynia (von Frey) [2]: significant overall effect on the reversal of allodynia bilaterally; also recorded: effective at reversing mechanical allodynia; Area under the curve (AUC) analysis of allodynia [2]: significantly reversed allodynia |
| CN(C(=O)/C=C/c1ccoc1)[C@H]1CC[C@]2(O)[C@@H]3Cc4ccc(O)c5c4[C@]2(CCN3CC2CC2)[C@@H]1O5 [II-62] | 1.34 ± 0.05 OD | 0.18 ± 0.01 OD | 6% | 87% | – | – | Time course analysis of allodynia, ipsilateral paw ([2]; Day 4 of dosing): slight reversal of allodynia; Animals sleepier/sedated on at least one post dosing occasion ([2]; high dose): two; Local observations (swelling, irritation) ([2]; high dose): appeared to irritate the rats when it was injected; also recorded: swelling around the site of injection; Reversal of allodynia (von Frey) [2]: did not significantly reverse allodynia at any dose; Area under the curve (AUC) analysis of allodynia [2]: no overall effect of any dose; Animals sleepier/sedated on at least one post dosing occasion ([2]; low dose): one; Animals sleepier/sedated on at least one post dosing occasion ([2]; medium dose): one |
| COC(=O)[C@@H](C)NC1CCC2C3Cc4ccc(OC)c5c4[C@]2(CCN3C)C1O5 (stereo partly shown) [II-92] | 1.09 ± 0.03 OD | 0.73 ± 0.06 OD | 23% | 48% | – | – | – |
| C=CCN1CC[C@@]23c4c5ccc(OC)c4OC2C(NCCC)CCC3C1C5 (stereo partly shown) [II-93] | 0.12 ± 0.00 OD | 0.11 ± 0.01 OD | 91% | 92% | – | – | Animals sleepier/sedated on at least one post dosing occasion ([2]; high dose): 7; Local observations (swelling, irritation) ([2]; high dose): swelling of the ipsilateral paw; Reversal of allodynia (von Frey) [2]: significantly reversed allodynia in the ipsilateral paw after the high dose only; also recorded: effective at reversing mechanical allodynia; Area under the curve (AUC) analysis of allodynia [2]: significant reversal of allodynia in the ipsilateral paw; Animals sleepier/sedated on at least one post dosing occasion ([2]; low dose): one; Animals sleepier/sedated on at least one post dosing occasion ([2]; medium dose): two; Protection from APAP-induced toxicity [3]: None of compounds II-24, II-93, or III-2 provided any protection; Liver histology scores (necrosis and hemorrhage) [3]: about the same as those only exposed to APAP |
| COC1=CCC2[C@@H]3Cc4ccc(OC)c5c4[C@]2(CCN3CC2CC2)[C@@H]1O5 (stereo partly shown) [II-95] | 1.11 ± 0.04 OD | 0.37 ± 0.03 OD | – | 74% | – | – | % Inhibition (mean) ([1]; 100 nM, 0.1 µM): 22% |
| COC1=CCC2[C@@H]3Cc4ccc(OC)c5c4[C@]2(CCN3C)[C@@H]1O5 (stereo partly shown) [II-96] | 1.15 ± 0.06 OD | 0.42 ± 0.02 OD | 19% | 71% | – | – | – |
| COc1ccc2c3c1O[C@@H]1C4(CCC5[C@H](C2)N(CC2CC2)CC[C@]351)OCCO4 (stereo partly shown) [II-97] | 1.22 ± 0.02 OD | 1.42 ± 0.07 OD | 14% | 0% | – | – | – |
| COc1ccc2c3c1O[C@@H]1C(OC)(OC)CCC4[C@H](C2)N(CC2CC2)CC[C@]341 (stereo partly shown) [II-99] | 1.32 ± 0.00 OD | 0.14 ± 0.01 OD | 7% | 90% | – | – | – |
| COC1=CCC2[C@@H]3Cc4ccc(OC)c5c4[C@]2(CCN3C(=O)Oc2ccccc2)[C@@H]1O5 (stereo partly shown) [II-100] | 1.16 ± 0.02 OD | 1.45 ± 0.11 OD | 18% | -2% | – | – | – |
| COc1ccc2c3c1O[C@@H]1C(OC)(OC)C(Br)CC4[C@H](C2)N(C)CC[C@]341 (stereo partly shown) [II-101] | 1.35 ± 0.06 OD | 0.94 ± 0.02 OD | 5% | 34% | – | – | – |
| COc1ccc2c(c1)CCN[C@@H]2Cc1ccc(OC)c(O)c1 [III-1] | 1.34 ± 0.06 OD | 0.67 ± 0.01 OD | – | – | 6% | 53% | – |
| C=CCN1CCc2cc(OC)ccc2[C@H]1Cc1ccc(OC)c(O)c1 [III-2] | 1.13 ± 0.02 OD | 0.42 ± 0.04 OD | – | – | 21% | 71% | Reversal of allodynia (von Frey) [2]: no effect on allodynia at any dose; Animals sleepier/sedated on at least one post dosing occasion ([2]; low dose): Two; Protection from APAP-induced toxicity [3]: None of compounds II-24, II-93, or III-2 provided any protection; Liver histology scores (necrosis and hemorrhage) [3]: about the same as those only exposed to APAP |
| COc1ccc2c(c1)CCN(CC1CC1)[C@@H]2Cc1ccc(OC)c(O)c1 [III-3] | 1.03 ± 0.03 OD | 0.13 ± 0.01 OD | – | – | 27% | 91% | – |
| COc1ccc2c(c1)CCN(CC1CCC1)[C@@H]2Cc1ccc(OC)c(O)c1 [III-4] | 1.04 ± 0.04 OD | 0.11 ± 0.01 OD | – | – | 27% | 92% | – |
| COc1ccc2c(c1)CCN(C)[C@@H]2Cc1ccc(OC)c(O)c1 [III-5] | 1.11 ± 0.02 OD | 0.29 ± 0.01 OD | – | – | 22% | 80% | – |
